Data set [1] is described as follows: wn = mass fraction of the nth substance listed. The note with it: 298.15 K; 101.1 kPa; Liquid; Vibrating tube method; w1 = 0.85.
The nature of data set [2]: refractive index (Na D-line) (dimensionless); wn = mass fraction of the nth substance listed. The note with it: 298.15 K; 101.1 kPa; Liquid; Standard Abbe refractometry; w1 = 0.85.
Data set [3] in a line: refractive index (Na D-line) (dimensionless). The note with it: 298.15 K; 101.33 kPa; Liquid; Standard Abbe refractometry.
For data set [4] the following is noted: 298.15 K; 101.33 kPa; Liquid; Vibrating tube method.

Structures are written as SMILES. ± gives the expanded uncertainty stated by the source.

One may read the mass density as the mass of a sample divided by its volume. A word on the refractive index: it is a measure of how strongly the sample bends light. Take `O=P(O)(O)O` [phosphoric acid] + O: the mass density in data set [1] turned out to be 1682.8 ± 2.5 kg/m3. In data set [2], the refractive index was determined as 1.432 ± 0.0005.
On to `CC1COC(=O)O1` (stereo not given) [4-methyl-1,3-dioxolan-2-one], for which the refractive index in data set [3] amounted to 1.419 ± 0.0005. Further, the mass density in data set [4] came out at 1198.3 ± 2.4 kg/m3.
With `O` [water], the refractive index in data set [3] was found to be 1.3326 ± 0.0005.

The values above are taken from the NIST ThermoML archive (doi:10.1016/j.jct.2016.09.008).
